≈ marks a conversion by molar mass, not a printed value.
Experiment: water-solubility of the product

water-solubility (in water, at ambient temperature): approximately 25 wt. % | solubility (water): ~350 mg/mL (≈ 930 mM)
SMILES: CC1(C)OC(C2OC(C)(C)O[C@H]2C(=O)NCCO)[C@@H](C(=O)NCCO)O1 (some centres unmarked) [GalX-di-ethanolamide]

— US10752637B2, “Bis-diox(ol)ane compounds” (Koninklijke Coöperatie Cosun U.A., priority 2016, dated 2020)
